Experimental data published in US7576088B2, “Benzodioxole derivatives” (Hoffman-La Roche Inc., priority 2002, dated 2009).

Target: T1, human cannabis CB1 receptor (Homo sapiens, UniProt P21554)
T1 construct: expressed in transfected cells; host or cells: human embryonic kidney (HEK) cells, Semliki Forest Virus system
Assay: Affinity for cannabinoid CB1 receptors, [3H]-CP-55,940 radioligand binding on HEK cell membranes
Settings: not given
Method: The affinity of the compounds of the invention for cannabinoid CB1 receptors was determined using membrane preparations of human embryonic kidney (HEK) cells in which the human cannabis CB1 receptor is transiently transfected using the Semliki Forest Virus system in conjunction with [3H]-CP-55,940 as radioligand. After incubation of a freshly prepared cell membrane preparation with the [3H]-ligand, with or without addition of compounds of the invention, separation of bound and free ligand was performed by filtration over glassfiber filters. Radioactivity on the filter was measured by liquid scintillation counting.

T1 sequence (P21554 whole entry): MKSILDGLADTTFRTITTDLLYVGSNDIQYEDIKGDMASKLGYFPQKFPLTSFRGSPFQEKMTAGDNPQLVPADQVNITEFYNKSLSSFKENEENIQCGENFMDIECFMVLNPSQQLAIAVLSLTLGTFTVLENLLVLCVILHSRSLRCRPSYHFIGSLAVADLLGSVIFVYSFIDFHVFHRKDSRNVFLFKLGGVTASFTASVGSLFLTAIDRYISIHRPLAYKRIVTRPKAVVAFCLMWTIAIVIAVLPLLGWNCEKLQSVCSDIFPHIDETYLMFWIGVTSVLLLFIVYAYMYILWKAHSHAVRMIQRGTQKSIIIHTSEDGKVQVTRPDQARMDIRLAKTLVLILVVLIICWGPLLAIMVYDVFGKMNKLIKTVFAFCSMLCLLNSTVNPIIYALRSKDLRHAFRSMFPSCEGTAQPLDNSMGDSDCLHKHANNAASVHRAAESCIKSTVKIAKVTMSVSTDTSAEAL

Compound	IC50 [µM]
O=C(c1ccc2c(c1)OC(c1ccccc1)(c1ccccc1)O2)N1CCC2(CC1)OCCO2 [Example 46, (1,4-dioxa-8-aza-spiro[4.5]dec-8-yl)-(2,2-diphenyl-benzo[1,3]dioxol-5-yl)-methanone]	< 2

Same assay, conditions: affinity for the CB1 receptor; read-out: IC50

Compound	IC50 [µM]
O=S(=O)(c1ccc2c(c1)OC(c1ccc(F)cc1)(c1ccc(Cl)cc1Cl)O2)N1CCCCC1 (racemic) [Example 39, 1-[2-(2,4-dichloro-phenyl)-2-(4-fluoro-phenyl)-benzo[1,3]dioxole-5-sulfonyl]-piperidine]	< 2
O=S(=O)(c1ccc2c(c1)OC(c1ccccc1)(c1ccccc1)O2)N1CCN(c2ccc(Cl)cc2Cl)CC1 [Example 4, 1-(2,4-dichloro-phenyl)-4-(2,2-diphenyl-benzo[1,3]dioxole-5-sulfonyl)-piperazine]	< 2
O=S(=O)(c1ccc2c(c1)OC(c1ccccc1)(c1ccccc1)O2)N1CCc2ccccc2C1 [Example 18, 2-(2,2-diphenyl-benzo[1,3]dioxole-5-sulfonyl)-1,2,3,4-tetrahydro-isoquinoline]	< 2
O=S(=O)(NCc1ccccc1)c1ccc2c(c1)OC(c1ccccc1)(c1ccccc1)O2 [Example 20, 2,2-diphenyl-benzo[1,3]dioxole-5-sulfonic acid benzylamide]	< 2
O=S(=O)(c1ccc2c(c1)OC(c1ccccc1)(c1ccccc1)O2)N1CCCN(c2ncc(C(F)(F)F)cc2Cl)CC1 [Example 22, 1-(3-chloro-5-trifluoromethyl-pyridin-2-yl)-4-(2,2-diphenyl-benzo[1,3]dioxole-5-sulfonyl)-[1,4]diazepane]	< 2
O=C(c1ccc2c(c1F)OC(c1ccccc1)(c1ccccc1)O2)N1CCOCC1 [Example 65, (4-fluoro-2,2-diphenyl-benzo[1,3]dioxol-5-yl)-morpholin-4-yl-methanone]	< 2
Fc1ccc(C2=CCN(Cc3ccc4c(c3)OC(c3ccccc3)(c3ccccc3)O4)CC2)cc1 [Example 75, 1-(2,2-diphenyl-benzo[1,3]dioxol-5-yl-methyl)-4-(4-fluoro-phenyl)-1,2,3,6-tetrahydro-pyridine]	< 2
O=C(c1cc2c(cc1F)OC(c1ccc(F)cc1)(c1ccc(Cl)cc1Cl)O2)N1CCOCC1 (stereo not drawn) [Example 108, [2-(2,4-dichloro-phenyl)-6-fluoro-2-(4-fluoro-phenyl)-benzo[1,3]dioxol-5-yl]-morpholin-4-yl-methanone]	< 2
O=C(c1cc2c(cc1F)OC(c1ccc(F)cc1)(c1ccc(F)cc1)O2)N1CCCC1 [Example 164, [6-fluoro-2,2-bis-(4-fluoro-phenyl)-benzo[1,3]dioxol-5-yl]-pyrrolidin-1-yl-methanone]	< 2
O=S(=O)(c1cc2c(cc1F)OC1(O2)c2ccccc2CCc2ccccc21)N1CCOCC1 [Example 234]	< 2
O=C(c1cc2c(cc1F)OC(c1ccccc1F)(c1ccccc1F)O2)N1CC[C@H](O)C1 [Example 271]	< 2

Test system: not given
Assay: not given
Settings: not given

Compound	melting point [°C]
O=C(c1cc2c(cc1F)OC(c1ccccc1Cl)(c1ccccc1Cl)O2)N1CCOCC1	98
O=C(c1ccc2c(c1)OC(c1cccc(Cl)c1)(c1cccc(Cl)c1)O2)N1CCCCC1	54

Test system: not given
Assay: not given
Settings: doses of 5, 10 and 20 mg daily; cited from earlier work

Compound	body weight compared to placebo
Cc1c(C(=O)NN2CCCCC2)nn(-c2ccc(Cl)cc2Cl)c1-c1ccc(Cl)cc1 [SR 141716, Rimonabant]	significantly reduced body weight
